Source: PubChem BioAssay AID2060611 (Molecular Pharmacology Branch, DTP, NCI, 2025)

Test system: 628569-122-R-J1-PDC complex spheroid viability
Test: Anticancer human tumor 628569-122-R-J1-PDC patient-derived head and neck squamous carcinoma cell line growth inhibition [CLK]
Details: for IC50: curve of first compound; for viability, T/C: stronger effect = lower value
Outline: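 Multi-cell-type spheroids combined patient-derived tumor cells with HUVEC endothelial cells and human mesenchymal stem cells. Paired agents were dosed in half-log steps down from about clinical Cmax, or from 10 microM where Cmax was unknown.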

[1] = second compound 0.0316 µM, first compound 0.0316 µM
[2] = second compound 0.0316 µM, first compound 0.1 µM
[3] = second compound 0.0316 µM, first compound 0.316 µM
[4] = second compound 0.0316 µM, first compound 1 µM
[5] = second compound 0.0316 µM, first compound 3.16 µM
[6] = second compound 0.0316 µM, first compound 10 µM
[7] = second compound 0.1 µM, first compound 0.0316 µM
[8] = second compound 0.1 µM, first compound 0.1 µM
[9] = second compound 0.1 µM, first compound 0.316 µM
[10] = second compound 0.1 µM, first compound 1 µM
[11] = second compound 0.1 µM, first compound 3.16 µM
[12] = second compound 0.1 µM, first compound 10 µM
[13] = second compound 0.316 µM, first compound 0.0316 µM
[14] = second compound 0.316 µM, first compound 0.1 µM
[15] = second compound 0.316 µM, first compound 0.316 µM
[16] = second compound 0.316 µM, first compound 1 µM
[17] = second compound 0.316 µM, first compound 3.16 µM
[18] = second compound 0.316 µM, first compound 10 µM
[19] = second compound 1 µM, first compound 0.0316 µM
[20] = second compound 1 µM, first compound 0.1 µM
[21] = second compound 1 µM, first compound 0.316 µM
[22] = second compound 1 µM, first compound 1 µM
[23] = second compound 1 µM, first compound 3.16 µM
[24] = second compound 1 µM, first compound 10 µM
[25] = second compound 3.16 µM, first compound 0.0316 µM
[26] = second compound 3.16 µM, first compound 0.1 µM
[27] = second compound 3.16 µM, first compound 0.316 µM
[28] = second compound 3.16 µM, first compound 1 µM
[29] = second compound 3.16 µM, first compound 3.16 µM
[30] = second compound 3.16 µM, first compound 10 µM
[31] = second compound 10 µM, first compound 0.0316 µM
[32] = second compound 10 µM, first compound 0.1 µM
[33] = second compound 10 µM, first compound 0.316 µM
[34] = second compound 10 µM, first compound 1 µM
[35] = second compound 10 µM, first compound 3.16 µM
[36] = second compound 10 µM, first compound 10 µM
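Note: spheroids exposed to agents for seven days before readout.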
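Throughout, for viability, T/C: 100% = DMSO vehicle control viability.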

C#Cc1c(F)ccc2cc(O)cc(-c3ncc4c(N5CC6CCC(C5)N6)nc(OCC56CCCN5CC(F)C6)nc4c3F)c12 (stereo not drawn) + CNC(=O)c1ccc(Nc2nc(OC3CCCC3)c3c(-c4ccc5nc(C)oc5c4)c[nH]c3n2)c(OC)c1
IC50 (second compound 0.0316 µM): > 10 µM
IC50 (second compound 0.1 µM): > 10 µM
IC50 (second compound 0.316 µM): 1.35 µM
IC50 (second compound 1 µM): < 0.0316 µM
IC50 (second compound 3.16 µM): < 0.0316 µM
IC50 (second compound 10 µM): < 0.0316 µM
viability, T/C [1]: 103%
viability, T/C [2]: 94.2%
viability, T/C [3]: 84.8%
viability, T/C [4]: 100%
viability, T/C [5]: 98.7%
viability, T/C [6]: 98.8%
viability, T/C [7]: 71.2%
viability, T/C [8]: 63.2%
viability, T/C [9]: 51.5%
viability, T/C [10]: 53.5%
viability, T/C [11]: 61.7%
viability, T/C [12]: 59.3%
viability, T/C [13]: 55.8%
viability, T/C [14]: 52.9%
viability, T/C [15]: 50.2%
viability, T/C [16]: 53.4%
viability, T/C [17]: 47.5%
viability, T/C [18]: 44.1%
viability, T/C [19]: 46%
viability, T/C [20]: 45.6%
viability, T/C [21]: 47.4%
viability, T/C [22]: 50.9%
viability, T/C [23]: 44.9%
viability, T/C [24]: 52.3%
viability, T/C [25]: 51.6%
viability, T/C [26]: 43.1%
viability, T/C [27]: 47.5%
viability, T/C [28]: 39.2%
viability, T/C [29]: 40.3%
viability, T/C [30]: 28.5%
viability, T/C [31]: 49.4%
viability, T/C [32]: 42.4%
viability, T/C [33]: 41.9%
viability, T/C [34]: 41.4%
viability, T/C [35]: 47.5%
viability, T/C [36]: 29.7%

C=C(F)C(=O)N1CCN(c2nc(OCC3CCCN3C)nc3c2CCN(c2cccc4cccc(Cl)c24)C3)CC1CC#N (stereo not drawn) + CNC(=O)c1ccc(Nc2nc(OC3CCCC3)c3c(-c4ccc5nc(C)oc5c4)c[nH]c3n2)c(OC)c1
IC50 (second compound 0.0316 µM): 5.89 µM
IC50 (second compound 0.1 µM): 4.25 µM
IC50 (second compound 0.316 µM): 3.64 µM
IC50 (second compound 1 µM): 0.0316 µM
IC50 (second compound 3.16 µM): < 0.0316 µM
IC50 (second compound 10 µM): < 0.0316 µM
viability, T/C [1]: 84.5%
viability, T/C [2]: 85.8%
viability, T/C [3]: 88.8%
viability, T/C [4]: 112%
viability, T/C [5]: 126%
viability, T/C [6]: 8.03%
viability, T/C [7]: 58.8%
viability, T/C [8]: 53.8%
viability, T/C [9]: 65.5%
viability, T/C [10]: 64%
viability, T/C [11]: 90.2%
viability, T/C [12]: 1.94%
viability, T/C [13]: 54.6%
viability, T/C [14]: 47.9%
viability, T/C [15]: 49.3%
viability, T/C [16]: 56.3%
viability, T/C [17]: 72.1%
viability, T/C [18]: 6.63%
viability, T/C [19]: 46.5%
viability, T/C [20]: 42.9%
viability, T/C [21]: 43.7%
viability, T/C [22]: 49%
viability, T/C [23]: 62.8%
viability, T/C [24]: 1.4%
viability, T/C [25]: 46.2%
viability, T/C [26]: 43.3%
viability, T/C [27]: 45.4%
viability, T/C [28]: 51.5%
viability, T/C [29]: 48.1%
viability, T/C [30]: 0.86%
viability, T/C [31]: 53.9%
viability, T/C [32]: 36.1%
viability, T/C [33]: 46.7%
viability, T/C [34]: 54.5%
viability, T/C [35]: 43.8%
viability, T/C [36]: 5.33%

C=CC(=O)N1CCN(c2nc(=O)n(-c3c(C)ccnc3C(C)C)c3nc(-c4c(O)cccc4F)c(F)cc23)C(C)C1 (stereo not drawn) + CNC(=O)c1ccc(Nc2nc(OC3CCCC3)c3c(-c4ccc5nc(C)oc5c4)c[nH]c3n2)c(OC)c1
IC50 (second compound 0.0316 µM): > 10 µM
IC50 (second compound 0.1 µM): > 10 µM
IC50 (second compound 0.316 µM): > 10 µM
IC50 (second compound 1 µM): < 0.0316 µM
IC50 (second compound 3.16 µM): < 0.0316 µM
IC50 (second compound 10 µM): < 0.0316 µM
viability, T/C [1]: 80%
viability, T/C [2]: 105%
viability, T/C [3]: 84.1%
viability, T/C [4]: 105%
viability, T/C [5]: 127%
viability, T/C [6]: 125%
viability, T/C [7]: 61.9%
viability, T/C [8]: 64.2%
viability, T/C [9]: 60%
viability, T/C [10]: 59.7%
viability, T/C [11]: 75.8%
viability, T/C [12]: 81.1%
viability, T/C [13]: 52.6%
viability, T/C [14]: 59.9%
viability, T/C [15]: 60.2%
viability, T/C [16]: 62.9%
viability, T/C [17]: 63.7%
viability, T/C [18]: 67%
viability, T/C [19]: 49.9%
viability, T/C [20]: 47%
viability, T/C [21]: 47.1%
viability, T/C [22]: 58.4%
viability, T/C [23]: 59.6%
viability, T/C [24]: 59.8%
viability, T/C [25]: 39.7%
viability, T/C [26]: 45.9%
viability, T/C [27]: 51.5%
viability, T/C [28]: 50.4%
viability, T/C [29]: 54.7%
viability, T/C [30]: 53%
viability, T/C [31]: 48.6%
viability, T/C [32]: 37.7%
viability, T/C [33]: 47.1%
viability, T/C [34]: 44.9%
viability, T/C [35]: 44.7%
viability, T/C [36]: 44%

CC(CO)NC(=O)c1cc(-c2ccc(Cl)cc2)nn(-c2cnn(C)c2)c1=O (stereo not drawn) + CNC(=O)c1ccc(Nc2nc(OC3CCCC3)c3c(-c4ccc5nc(C)oc5c4)c[nH]c3n2)c(OC)c1
IC50 (second compound 0.0316 µM): > 10 µM
IC50 (second compound 0.1 µM): > 10 µM
IC50 (second compound 0.316 µM): > 10 µM
IC50 (second compound 1 µM): > 10 µM
IC50 (second compound 3.16 µM): > 10 µM
IC50 (second compound 10 µM): > 10 µM
viability, T/C [1]: 135%
viability, T/C [2]: 176%
viability, T/C [3]: 214%
viability, T/C [4]: 189%
viability, T/C [5]: 192%
viability, T/C [6]: 169%
viability, T/C [7]: 91.4%
viability, T/C [8]: 87.9%
viability, T/C [9]: 100%
viability, T/C [10]: 125%
viability, T/C [11]: 138%
viability, T/C [12]: 124%
viability, T/C [13]: 66.2%
viability, T/C [14]: 82.6%
viability, T/C [15]: 100%
viability, T/C [16]: 104%
viability, T/C [17]: 150%
viability, T/C [18]: 97.4%
viability, T/C [19]: 64.7%
viability, T/C [20]: 68.7%
viability, T/C [21]: 79.4%
viability, T/C [22]: 89.6%
viability, T/C [23]: 84.9%
viability, T/C [24]: 81.6%
viability, T/C [25]: 70.8%
viability, T/C [26]: 66.2%
viability, T/C [27]: 81%
viability, T/C [28]: 77.6%
viability, T/C [29]: 90%
viability, T/C [30]: 82.4%
viability, T/C [31]: 70%
viability, T/C [32]: 59.4%
viability, T/C [33]: 76.1%
viability, T/C [34]: 93.1%
viability, T/C [35]: 90.8%
viability, T/C [36]: 79.3%
